What was measured:
HSV = assay: Virus sensitivity assay (VSA): HSV patient material replicated in HL-cells with antiviral agent, cell disruption, virus antigen by ELISA sandwich technique (Example 1); type: cell-based, herpes simplex virus (HSV); conditions: disrupted cells, culture of 1 to 3 days
Procedure: A material from a patient containing living HSV is mixed with a small amount of Eagle's tissue culture medium containing 2% of calf serum, 100 IE penicillin/ml and 100 […] of streptomycin/ml, after which the virus mixture is diluted 1:30 in this medium.
(§1) Sterile plastic plates comprising 24 wells, each having a culture surface of 2.5 cm^2 and containing about 5 x 10^5 HL-cells/well were inoculated with 0.1 ml of virus dilutions as above. Such of the above virus dilutions only containing a small amount of virus are first cultured for 3 days in HL-cells, on which virus replicates, after which the virus isolate from one cell passage is taken out, is diluted 1:30 and 0.1 ml of the dilutions is added to the plates as indicated above. The cells are then incubated at a temperature of 32-37°C, with addition of different antiviral agents, and without any addition of antiviral agent to obtain reference values. Each antiviral agent is added in a dilution series comprising six different concentrations (Cl-C6), some of which correspond to desired serum concentrations for the treatment of patients. In table 1 is indicated the antiviral agents and concentrations thereof used.
As a background control of virus replication taking place and for a direct typing of virus 2 cell containing wells/plate are inoculated with a mixture of 0.1 ml virus dilution and 0.05 ml of Brij-58 of 1%.
After a culture of 1 to 3 days the effect of the antiviral agents is then evaluated by measurement with ELISA sandwich technique as described below. However, the cells are treated in the following way before this measurement.
(§2) The supernatant is sucked off and in order to achieve cell disrupture 800 µl of distilled water are added to the cells on the plates. The plates are frozen at -20°C and after some time sufficient for formation of ice crystals (about 15 min) the plates are thawed to room temperature for measurement of virus antigen. If desired, the plates can be preserved in a frozen state for a long time before they are thawed in order to carry out the measurement of virus antigen. When the plates have thawed 200 µl of NaCI of 4.5% are added to the cells in order to obtain an isotonic solution.
(§3) The amount of virus antigen formed is thereafter determined as follows. Guinea pig anti-HSV-serum is diluted in 0.1-M sodium carbonate buffer. 0.1 ml of the serum dilution is filled per well in microplates (M 29 AR, Dynatech, Zug, Switzerland) which have been washed three times with NaCI-solution of 0.9% containing 0.05% of Tween® 20, after which the plates are incubated for 16 hours at room temperature. The plates can be preserved sealed with their contents at +4°C up to 2-3 months. The optimal antibody concentration has been determined by antibody titration with the respective antigen and control antigen.
0.1 ml of the cell material obtained above or a known virus antigen is filled into plates treated with antibody and is incubated for 4 hours at +4°C. After washing with the washing solution indicated above 0.1 ml of rabbit anti-HSV is added and the plates are incubated for 2 hours at +37°C. The plates are washed and 0.1 ml of conjugate is added, after which they are incubated for 2 hours at +37°C. The conjugate consists of pig anti-rabbit IgG conjugated with alkaline phosphatase (Orion Diagnostica, Helsinki, Finland) in a dilution of 1:100. Non-bonded conjugate is washed off before 100 pl of the substrate p-nitrophenyl phosphate (1 mg/ml, Sigma, St Louis, MO, USA) are added. For dilution of the substrate 1 M diethanol buffer, pH 9.8 containing 0.5 x 10-^3 M MgC12 is used and for dilution of antisera and conjugate phosphate buffer (PBS), pH 7.3-7.4 with 0.5% of Tween® 20, 0.5% of BSA (bovine serum albumin) and 0.02% of NaN3 is used. The reaction is stopped after 20-60 min with 0.025 ml of 5 M NaOH. The absorbance (A) is thereafter read at 405 nm with Titertek Multiskan® (Flow Laboratories, Irvine, Scotland). […]

HSV-1 = assay: VSA on HL-cells infected with HSV-1, virus antigen measured in supernatant and in cells disrupted with distilled water (Example 2); type: cell-based; conditions: for Absorbance values at 405 nm: 3 days
Procedure: as §1, §2, §3
0.1 ml of the cell material obtained above or a known virus antigen is filled into plates treated with antibody and is incubated for 4 hours at +4°C. After washing with the washing solution indicated above 0.1 ml of rabbit anti-HSV is added and the plates are incubated for 2 hours at +37°C. The plates are washed and 0.1 ml of conjugate is added, after which they are incubated for 2 hours at +37°C. The conjugate consists of pig anti-rabbit IgG conjugated with alkaline phosphatase (Orion Diagnostica, Helsinki, Finland) in a dilution of 1:100. Non-bonded conjugate is washed off before 100 pl of the substrate p-nitrophenyl phosphate (1 mg/ml, Sigma, St Louis, MO, USA) are added. For dilution of the substrate 1 M diethanol buffer, pH 9.8 containing 0.5 x 10-^3 M MgC12 is used and for dilution of antisera and conjugate phosphate buffer (PBS), pH 7.3-7.4 with 0.5% of Tween® 20, 0.5% of BSA (bovine serum albumin) and 0.02% of NaN3 is used. The reaction is stopped after 20-60 min with 0.025 ml of 5 M NaOH. The absorbance (A) is thereafter read at 405 nm with Titertek Multiskan® (Flow Laboratories, Irvine, Scotland). Absorbance values then obtained at the concentrations C1―C6 of the antiviral agents from table 1 and at the concentration Co = O are indicated in the following table 2.
HL-cells infected with HSV-1 were incubated in the same way as in example 1 in the presence of Ara-A and IDU in the concentrations indicated in table 1 for 3 days. Reference culture without addition of antiviral agent was also carried out. The virus antigen in the supernatant (---) and in cells disrupted with distilled water (-) was thereafter measured in the same way as in example 1, and the results are found in table 3 and Fig. 2.

[1] = C1: Ara-A 5, ACV 0.15, PFA 25, IDU 0.5 μM, C0 (no agent) 1.425
[2] = C2: Ara-A 10, ACV 0.31, PFA 50, IDU 1 μM, C0 1.425
[3] = C3: Ara-A 20, ACV 0.63, PFA 100, IDU 2 μM, C0 1.425
[4] = C4: Ara-A 40, ACV 1.25, PFA 200, IDU 4 μM, C0 1.425
[5] = C5: Ara-A 80, ACV 2.5, PFA 400, IDU 8 μM, C0 1.425
[6] = C6: Ara-A 160, ACV 5, PFA 800, IDU 16 μM, C0 1.425
[7] = cells disrupted with distilled water, C1: Ara-A 5, IDU 0.5 μM
[8] = cells disrupted with distilled water, C2: Ara-A 10, IDU 1 μM
[9] = cells disrupted with distilled water, C3: Ara-A 20, IDU 2 μM
[10] = cells disrupted with distilled water, C4: Ara-A 40, IDU 4 μM
[11] = cells disrupted with distilled water, C5: Ara-A 80, IDU 8 μM
[12] = cells disrupted with distilled water, C6: Ara-A 160, IDU 16 μM
[13] = supernatant, C1: Ara-A 5, IDU 0.5 μM
[14] = supernatant, C2: Ara-A 10, IDU 1 μM
[15] = supernatant, C3: Ara-A 20, IDU 2 μM
[16] = supernatant, C4: Ara-A 40, IDU 4 μM
[17] = supernatant, C5: Ara-A 80, IDU 8 μM
[18] = supernatant, C6: Ara-A 160, IDU 16 μM

Row | SMILES | absorbance (A) at 405 nm (HSV; [1]) | absorbance (A) at 405 nm (HSV; [2]) | absorbance (A) at 405 nm (HSV; [3]) | absorbance (A) at 405 nm (HSV; [4]) | absorbance (A) at 405 nm (HSV; [5]) | absorbance (A) at 405 nm (HSV; [6]) | Absorbance values at 405 nm (HSV-1; [7]) | Absorbance values at 405 nm (HSV-1; [8]) | Absorbance values at 405 nm (HSV-1; [9]) | Absorbance values at 405 nm (HSV-1; [10]) | Absorbance values at 405 nm (HSV-1; [11]) | Absorbance values at 405 nm (HSV-1; [12]) | 50% of inhibition of antigen formation in the cells (HSV-1; read from Fig. 2, disrupted cells) | Absorbance values at 405 nm (HSV-1; [13]) | Absorbance values at 405 nm (HSV-1; [14]) | Absorbance values at 405 nm (HSV-1; [15]) | Absorbance values at 405 nm (HSV-1; [16]) | Absorbance values at 405 nm (HSV-1; [17]) | Absorbance values at 405 nm (HSV-1; [18])
1 | Nc1ncnc2c1ncn2C1OC(CO)C(O)C1O (stereo not shown) [Ara-A, adenosine-arabinoside] | 1.505 | 1.132 | 1.017 | 0.892 | 0.520 | 0.473 | 1.130 ± 0.052 | 1.073 ± 0.054 | 0.863 ± 0.030 | 0.513 ± 0.025 | 0.142 ± 0.009 | 0.119 | in clinically relevant concentrations | 0.384 ± 0.025 | 0.323 ± 0.010 | 0.276 ± 0.006 | 0.184 ± 0.009 | 0.099 ± 0.006 | 0.099
2 | O=c1[nH]c(=O)n([C@H]2C[C@H](O)[C@@H](CO)O2)cc1I [IDU, iododeoxyuridine] | 1.011 | 0.847 | 0.671 | 0.536 | 0.344 | 0.298 | 1.130 ± 0.052 | 1.075 ± 0.054 | 0.863 ± 0.030 | 0.513 ± 0.025 | 0.142 ± 0.009 | 0.119 | – | 0.320 ± 0.037 | 0.259 ± 0.005 | 0.201 ± 0.025 | 0.142 ± 0.019 | 0.091 ± 0.017 | 0.143

From patent EP0097633B1, “Determination of the sensitivity of virus to antiviral agents” (Wahren, Britta, priority 1982, dated 1984)
